Measurements reported in the OPERA property sets (Mansouri et al. 2018).
Where a SMILES comes first, the peptide text is derived from it.

Structure (SMILES)	logP
C#CC1(OC(=O)C2=CN(C)C=CC2)CCC2C3CCC4=CC(=O)CCC4C3CCC21C (centres undefined)	4.44
CCCC(=O)OCn1ncc2c(=O)[nH]cnc21	0.6
C#CCCOCn1ccnc1C=NO	0.67
CCC1COC(Cn2cncn2)(c2ccc(NC(=O)c3ccc([N+](=O)[O-])cc3)cc2)O1 (centres undefined)	2.17
CC(C)C(=O)NS(=O)(=O)c1ccc(C(F)(F)F)cc1N	2.56
Cc1ccc(Cl)c(C)c1	3.83
Cc1nc(Cl)c([N+](=O)[O-])n1C	0.87
CN1C(C(=O)Nc2nccs2)=C(O)c2ccccc2S1(=O)=O	1.64
CC(C)NCC(COc1cccc2ccccc12)OS(=O)(=O)O (centres undefined)	1.16
NC(=O)Cc1cccc2cccnc12	1.87
CCCCCNC(=O)C1(O)C(C)CC2C3CCC4=CC(=O)C=CC4(C)C3(F)C(O)CC21C (centres undefined)	3.64
COC(=O)C1CC2C3CCC4=CC(=O)C=CC4(C)C3(F)C(O)CC2(C)C1C(=O)CO (centres undefined)	1.78
Cc1cccc(OCCO)c1	1.76
COc1cccc2c1C(=O)c1c(O)c3c(c(O)c1C2=O)CC(O)(C(O)CO)CC3OC1CC(N2CCOCC2C#N)C(O)C(C)O1 (centres undefined)	1.56
CCN(C=Nc1ccn(C2OC(CO)C(O)C2O)c(=O)n1)CC (centres undefined)	-0.76
CCOc1ccccc1OCc1ccccc1CCCN1CCC(O)CC1	3.1
CCCN(C=Nc1ccn(C2OC(CO)C(O)C2O)c(=O)n1)CCC (centres undefined)	0.24
CC(C)(C)C(=O)OCn1cc2c(=O)[nH]cnc2n1	0.79
CC(=O)N[C@@H](CO)C(=O)N[C@H](C(N)=O)C(C)C (Ac-Ser-Val-NH2)	-1.53
CN(C)N=Nc1ccc([N+](=O)[O-])cc1	3.25
CNc1nccn2cc(-c3ccc(S(C)=O)cc3OC)nc12 (centres undefined)	1.88

Structure (SMILES)	logP
COc1cc(C)c2c(c1OC)-c1ccc(NCc3ccccc3)c(=O)cc1C(NC(C)=O)CC2 (centres undefined)	3.58
CCN1C(=O)C(=O)c2cc(OC)c(OC)cc2C1=O	1.31
CC(C)(C)N(NC(=O)c1cccc(F)c1)C(=O)c1ccccc1Cl	2.88
COc1ccccc1SCc1ccccc1CCCN1CCC(O)CC1	3.58
CC12CCC(=O)C=C1CCC1C2CCC2(C)C1CCC2(O)C(O)CO (centres undefined)	2
CCOC(=O)Cn1ccnc1C=Cc1ccc([N+](=O)[O-])o1	1.27
COC(=O)Cc1ccc(O)c2ncccc12	1.59
CCCCCOc1cccc(NC(=O)OCCN2CCOCC2)c1	4.13
CCC1COC(Cn2cncn2)(c2ccc(NC(=O)NC)cc2)O1 (centres undefined)	0.62
CNC(=O)C=C(C)OP(=O)(OC)OC	-0.2
Oc1ccc(I)c2cccnc12	3.27
Cc1ccccc1C(=O)NN(C(=O)c1ccccc1Cl)C(C)(C)C	2.91
OC1CCN(CCCc2ccccc2COc2ccc(F)cc2)CC1	3.3
CC(=O)NC(CC(=O)O)C(=O)NC(Cc1ccccc1)C(=O)NC(CC(C)C)C(N)=O (stereo not drawn) (Ac-Asp-Phe-Leu-NH2; configuration not given here)	0.4
COP(=O)(OC)O/C(C)=C/C(=O)OC(C)c1ccccc1 (centres undefined)	3.3
COc1cc(S(C)=O)ccc1-c1nc2ccccc2[nH]1 (centres undefined)	2.15
C#CCOc1c(Cl)cc(NC=NO)cc1Cl	2.8
OCC1CCC(n2cnc3cncnc32)O1 (centres undefined)	-0.47
CCCCC(C#N)(Cn1cncn1)c1ccc(Cl)cc1 (centres undefined)	2.94
CC(C)Oc1cccc(NC(=O)c2ccccc2C(F)(F)F)c1	3.7
Clc1cc(Cl)c(-c2ccc(Cl)c(Cl)c2Cl)c(Cl)c1	7.25

Now from value to compound:

logP	Structure (SMILES)
0.61	CCC(C)C(NC(=O)C(CC(=O)O)NC(C)=O)C(=O)NC(Cc1ccccc1)C(N)=O (centres undefined)
3.32	CCN(CC)C(=O)COC(=O)C(C)c1ccc2cc(OC)ccc2c1 (centres undefined)
2.19	COc1cccc(NC(=O)OCCN2CCOCC2)c1
4.25	N#CC(C#N)=NNc1ccc(/N=N/c2ccccc2)cc1
1.34	Cc1nnc(SCC2=C(C(=O)OCOC(=O)C(C)(C)C)N3C(=O)C(NC(=O)Cn4cnnn4)C3SC2)s1 (centres undefined)
1.88	NC(=O)c1ccc2ccccc2c1
-0.05	CC(=O)c1ccc2c(c1)OCCOCCOCCOCCOCCO2
3.04	CCCOc1cccc(NC(=O)OCCN2CCOCC2)c1
3.47	CCOC(=O)C(C)Oc1ccc(Oc2cnc3ccccc3n2)cc1 (centres undefined)
2.94	CCC(C)NC(=O)C=C(N)c1ccc(Cl)cc1 (centres undefined)
1.27	CN(C)N=Nc1nccs1
-0.63	O=C(NCCCO)C(F)(F)Cn1cnc([N+](=O)[O-])n1
0.33	CCOC(=O)Cn1ccnc1[N+](=O)[O-]
0.17	COc1cc(O)cc(OC)c1O
3.23	CCCCCCC(=O)OC(C(=O)NC1C(=O)N2C(C(=O)O)=C(C)CSC12)c1ccccc1 (centres undefined)
0.05	O=C(Cn1c(=O)sc2ccc(Cl)cc21)N1CC[N+]([O-])(CCO)CC1
3	C#CCOc1c(Cl)cc(NC=NOCC#N)cc1Cl
1.31	CCOC(=O)c1cccc2c1C(=O)C(=O)N(CC)C2=O
1.94	CC(C)NCC(O)COCCCc1ccccc1 (centres undefined)
4.37	Cc1cc(OCCN(C)C)c(C(C)C)cc1OS(=O)(=O)C12CCC(CC1=O)C2(C)C (centres undefined)
-1.3	O=c1cc[nH]cc1
0.4	CN(CO)c1nc(N(C)CO)nc(N(C)CO)n1
